Laboratory results published in publication PMC9527342, “An in vitro assay for enzymatic studies on human ALG13/14 heterodimeric UDP-N-acetylglucosamine transferase” (Frontiers in Cell and Developmental Biology, 2022).

T1: recombinant human ALG13/14 complex (FLAG-ALG13-iso2/6His-ALG14) (Homo sapiens, UniProt Q96F25+Q9NP73)
T1 construct: pelB-FLAG-ALG13-iso2 (25 kDa on SDS-PAGE) and 6His-ALG14 (22 kDa) co-expressed in E. coli Rosetta (DE3); purified from Triton X-100 membrane extract by HisTrap and anti-FLAG; tags kept; heterodimer, 45-66 kDa on native PAGE
T1 sequence (Q9NP73 1-165 isoform Q9NP73-2): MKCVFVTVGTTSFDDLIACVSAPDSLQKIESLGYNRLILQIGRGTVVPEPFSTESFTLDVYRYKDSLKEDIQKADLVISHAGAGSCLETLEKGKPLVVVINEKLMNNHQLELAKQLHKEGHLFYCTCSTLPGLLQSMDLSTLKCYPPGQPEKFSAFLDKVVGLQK
T1 sequence (Q96F25 1-216): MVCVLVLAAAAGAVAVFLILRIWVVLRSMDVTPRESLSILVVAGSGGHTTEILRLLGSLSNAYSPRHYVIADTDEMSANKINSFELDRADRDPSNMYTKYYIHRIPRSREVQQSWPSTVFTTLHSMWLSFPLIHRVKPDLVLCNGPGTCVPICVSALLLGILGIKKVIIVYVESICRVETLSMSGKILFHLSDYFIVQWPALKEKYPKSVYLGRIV

T2: 6His-ALG14 (human ALG14) (human) (UniProt Q96F25)
T2 sequence: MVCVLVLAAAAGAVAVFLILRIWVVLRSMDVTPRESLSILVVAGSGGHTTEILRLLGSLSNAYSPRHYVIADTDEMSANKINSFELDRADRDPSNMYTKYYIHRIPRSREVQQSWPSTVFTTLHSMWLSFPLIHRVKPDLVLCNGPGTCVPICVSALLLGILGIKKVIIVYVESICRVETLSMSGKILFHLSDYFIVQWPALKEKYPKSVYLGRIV


Tests used:
[1] = molecular target: T1, recombinant human ALG13/14 complex (FLAG-ALG13-iso2/6His-ALG14); test: LC-MS (UPLC-ESI-MS) of acid-released glycans, Michaelis-Menten fit; assay type: biochemical; details: acceptor 20-100 μM; 2 mM UDP-GlcNAc fixed; Tris/HCl pH 7.5, 0.3% NP-40, 23% glycerol, 37 °C, 15 min; no added metal; read-out: K m (apparent)
[2] = molecular target: T2, 6His-ALG14 (human ALG14) (human)

Km [1] [µM]	Relative activity (%): GnTase conversion rate of the mutant / that of the wild type, detergent extract of E. coli membranes, 0.1 ng/ul ALG13, 37°C, 15 min [2] [%]	Molecule
94.1 ± 9.4		CC(=O)N[C@H]1[C@@H](OP(=O)(O)OP(=O)(O)OCC[C@@H](C)CC/C=C(/C)CC/C=C(/C)CC/C=C(/C)CC/C=C(/C)CC/C=C(/C)CC/C=C(/C)CC/C=C(/C)CC/C=C(/C)CC/C=C(/C)CC/C=C(/C)CC/C=C(/C)CC/C=C(/C)CC/C=C(/C)CC/C=C(/C)CC/C=C(/C)CC/C=C(\C)CC/C=C(\C)CCC=C(C)C)O[C@H](CO)[C@@H](O)[C@@H]1O [Gn-PDol (C95)]
	26	FLAG-tagged ALG13-iso2 T141L (natural protein) MKCVFVTVGTTSFDDLIACVSAPDSLQKIESLGYNRLILQIGRGTVVPEPFSTESFTLDVYRYKDSLKEDIQKADLVISHAGAGSCLETLEKGKPLVVVINEKLMNNHQLELAKQLHKEGHLFYCTCSTLPGLLQSMDLSLLKCYPPGQPEKFSAFLDKVVGLQK
